Test: Inhibition of spike glycoprotein S in SARS-CoV-2 pseudovirus infected in human 293T/ACE2 cells assessed as inhibition of viral infection pretreated the virus for 30 mins followed by viral infection measured after 48 hrs by luciferase reporter gene assay

## COC1=C(CC(C)=O)C(=O)c2c(c(O)cc(OC)c2-c2c(OC)cc(O)c3c2C(=O)C(CC(C)=O)=C(OC)C3=O)C1=O
  IC50: 170 nM

## COc1c(O)c2c(=O)cc(OC)c3c4c(OC)cc(=O)c5c(O)c(OC)c6c(c(c1C[C@](C)(O)[C@H]6C(C)=O)c23)c54
  IC50: 120 nM

## COc1c2c3c4c(c(OC)c(=O)c5c(O)cc(OC)c(c6c(OC)cc(O)c(c1=O)c63)c54)[C@@H](C(C)=O)[C@@](C)(O)C2 [Hypocrellin A]
  IC50: 38 nM

Reference: BindingDB's records for doi:10.1021/acs.jnatprod.0c01136 (Chinese Academy of Sciences, 2021)
